According to ChEMBL document CHEMBL4428132, “Application of Fragment-Based de Novo Design to the Discovery of Selective Picomolar Inhibitors of Glycogen Synthase Kinase-3 Beta” (J Med Chem, 2016):

Assays:
[1] = molecular target: T1, Glycogen synthase kinase-3 beta (Homo sapiens, UniProt P49841); assay: Inhibition of His-tagged full length human recombinant GSK3beta using [YRRAAVPPSPSLSRHSSPHQ-(pS)EDEEE] substrate and pre-incubarted for 20 mins before [gamma-33P]ATP addition and measured after 2 hrs by radiometric kinase assay
Target sequence in this assay (P49841 whole entry): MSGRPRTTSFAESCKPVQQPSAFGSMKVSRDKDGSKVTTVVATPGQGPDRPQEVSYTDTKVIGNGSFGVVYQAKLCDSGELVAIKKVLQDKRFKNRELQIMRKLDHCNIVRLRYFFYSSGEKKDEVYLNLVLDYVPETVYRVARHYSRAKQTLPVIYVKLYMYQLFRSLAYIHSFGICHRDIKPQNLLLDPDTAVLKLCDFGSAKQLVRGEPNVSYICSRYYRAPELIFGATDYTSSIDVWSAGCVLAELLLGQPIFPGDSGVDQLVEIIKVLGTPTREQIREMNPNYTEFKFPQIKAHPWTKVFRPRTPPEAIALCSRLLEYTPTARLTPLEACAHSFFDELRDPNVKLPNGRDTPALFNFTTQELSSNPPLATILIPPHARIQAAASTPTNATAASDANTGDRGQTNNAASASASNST

[2] = molecular target: T1, Glycogen synthase kinase-3 beta; assay: Inhibition of GSK3beta (unknown origin) assessed as remaining enzyme activity at 1 uM
Target sequence in this assay (P49841 whole entry, looked up): as the sequence (P49841 whole entry) above

[3] = molecular target: Cyclin-dependent kinase 2 (Homo sapiens) (UniProt P24941); assay: Inhibition of CDK2 (unknown origin) assessed as remaining enzyme activity at 1 uM
MDA-MB-231 = assay: Antiproliferative activity against human MDA231 cells by MTT assay; type: functional, cell-based
MCF7 = assay: Antiproliferative activity against human MCF7 cells by MTT assay; type: functional, cell-based
SK-BR-3 = assay: Antiproliferative activity against human SKBR3 cells by MTT assay; type: functional, cell-based
[4] = molecular target: Aurora kinase B (Homo sapiens) (UniProt Q96GD4); assay: Inhibition of Aurora kinase B (unknown origin) assessed as remaining enzyme activity at 1 uM
Aurora kinase B (Homo sapiens), sequence (Q96GD4 whole entry): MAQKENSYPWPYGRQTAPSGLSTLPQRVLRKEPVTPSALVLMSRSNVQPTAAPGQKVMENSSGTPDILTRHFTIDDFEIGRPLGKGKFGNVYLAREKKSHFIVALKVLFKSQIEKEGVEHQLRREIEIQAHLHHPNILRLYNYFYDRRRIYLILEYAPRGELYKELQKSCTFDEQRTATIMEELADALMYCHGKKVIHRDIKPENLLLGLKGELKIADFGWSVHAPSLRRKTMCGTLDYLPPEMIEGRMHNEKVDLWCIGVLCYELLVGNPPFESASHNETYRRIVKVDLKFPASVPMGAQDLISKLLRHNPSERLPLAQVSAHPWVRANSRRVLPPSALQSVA

Row | SMILES | IC50 [1] [nM] | also measured
1 | O=C(CNC(=O)c1ccc2[nH]cc(-c3ccncc3)c2c1)NCCc1c[nH]c2ccccc12 | 33800 | 
2 | O=C(/C=C/c1cnc2[nH]cc(-c3ccccc3)c2c1)NCc1ccncc1 | 3.59 | 
3 | O=C(/C=C/c1cnc2[nH]cc(-c3cccnc3)c2c1)NCc1ccncc1 | 16.5 | 
4 | O=C(CNC(=O)c1ccc2noc(-c3ccccc3)c2c1)NCCc1c[nH]c2ccccc12 | > 50000 | 
5 | COc1ccc(-c2c[nH]c3ncc(/C=C/C(=O)NCc4ccncc4)cc23)cc1 | 0.508 | Activity [2]: 1.2%; Activity [3]: 97%; IC50 (MDA-MB-231): > 10000 nM; IC50 (MCF7): > 10000 nM; IC50 (SK-BR-3): > 10000 nM
6 | O=C(/C=C/c1cnc2[nH]cc(-c3ccccc3)c2c1)NCCc1c[nH]c2ccccc12 | 356 | 
7 | O=C(/C=C/c1cnc2[nH]cc(-c3ccccc3)c2c1)NCCc1ccccc1 | 248 | 
8 | O=C(CNC(=O)c1cnc2[nH]cc(-c3ccncc3)c2c1)NCCc1c[nH]c2ccccc12 | 994 | 
9 | O=C(/C=C/c1cnc2[nH]cc(-c3ccccc3)c2c1)NCCN1CCOCC1 | 45.7 | 
10 | O=C(/C=C/c1cnc2[nH]cc(-c3ccccc3)c2c1)NCc1ccc2[nH]ccc2c1 | 462 | 
11 | O=C(/C=C/c1cnc2[nH]cc(-c3ccccc3)c2c1)NCc1cccnc1 | 64.2 | 
12 | N#Cc1ccc(-c2c[nH]c3ncc(/C=C/C(=O)NCc4ccncc4)cc23)cc1 | 63.1 | 
13 | NC(=O)c1ccc(-c2c[nH]c3ncc(/C=C/C(=O)NCc4ccncc4)cc23)cc1 | 4.43 | 
14 | O=C(/C=C/c1cnc2[nH]cc(-c3ccncc3)c2c1)NCc1ccncc1 | 2.75 | 
15 | CC(=O)c1ccc(-c2c[nH]c3ncc(/C=C/C(=O)NCCc4ccccn4)cc23)cc1 | 1.37 | Activity [4]: 23%; Activity [2]: 3.4%; Activity [3]: 85%; IC50 (MDA-MB-231): > 10000 nM; IC50 (MCF7): > 10000 nM; IC50 (SK-BR-3): > 10000 nM
16 | O=C(/C=C/c1cnc2[nH]cc(-c3ccccc3)c2c1)NCCc1ccncc1 | 43.5 | 
17 | O=C(/C=C/c1cnc2[nH]cc(-c3ccccc3)c2c1)NCCc1c[nH]c2ncccc12 | 128 | 
18 | O=C(CCc1cnc2[nH]cc(-c3ccccc3)c2c1)NCCc1c[nH]c2ccccc12 | 1030 | 
19 | O=C(/C=C/c1cnc2[nH]cc(-c3ccc(F)cc3)c2c1)NCc1ccncc1 | 22.8 | 
20 | CS(=O)(=O)c1ccc(-c2c[nH]c3ncc(/C=C/C(=O)NCc4ccncc4)cc23)cc1 | 220 | 
21 | O=C(C/C=C/c1cnc2[nH]cc(-c3ccccc3)c2c1)NCCc1c[nH]c2ccccc12 | 3760 | 
22 | O=C(/C=C/c1cnc2[nH]cc(-c3ccccc3)c2c1)NCc1ccccn1 | 167 | 
23 | O=C(CNC(=O)c1cnc2[nH]cc(-c3ccccc3)c2c1)NCCc1c[nH]c2ccccc12 | 1450 | 
24 | CC(=O)c1ccc(-c2c[nH]c3ncc(/C=C/C(=O)NCc4ccncc4)cc23)cc1 | 1.42 | 
25 | O=C(/C=C/c1cnc2[nH]cc(-c3ccccc3)c2c1)NCc1ccco1 | 77.1 | 
26 | O=C(C/C=C/c1cnc2[nH]cc(-c3ccccc3)c2c1)NCCc1ccccc1 | > 50000 | 
27 | O=C(/C=C/c1cnc2[nH]cc(-c3ccccc3)c2c1)NCc1ccc2c(c1)CCO2 | 103 | 
28 | O=C(/C=C/c1cnc2[nH]cc(-c3ccccc3)c2c1)NCc1nc2ccccc2[nH]1 | 62.1 | 
